Usually inhibition stands for the change of the read-out against control, counted positive when it falls.

Experimental findings from ChEMBL document CHEMBL4190187, “Discovery of pyrazolopyrimidine derivatives as novel inhibitors of ataxia telangiectasia and rad3 related protein (ATR)” (Bioorg Med Chem Lett, 2017) are described below.

In assay [1] the test system is Hepatocyte growth factor receptor (Homo sapiens), P08581 [Y1248C]. The assay is described as follows: Inhibition of recombinant human Met Y1248C mutant (974 to end residues) at 1 uM using KKKGQEEEYVFIE as substrate after 40 mins in presence of [gamma-33P]ATP by scintillation counting method.
Assay [2] deals with Tyrosine-protein kinase Fyn (Homo sapiens) (UniProt P06241). In words: Inhibition of recombinant full-length human Fyn at 1 uM using KVEKIGEGTYGVVYK as substrate after 40 mins in presence of [gamma-33P]ATP by scintillation counting method.
The target in assay [3] is 5'-AMP-activated protein kinase catalytic subunit alpha-2 (Homo sapiens) (UniProt P54646). The assay is described as follows: Inhibition of recombinant full-length human AMPKalpha2 at 1 uM using AMARAASAAALARRR as substrate after 40 mins in presence of [gamma-33P]ATP by scintillation counting method.
For assay [4], the target named is MAP kinase-activated protein kinase 3 (Homo sapiens) (UniProt Q16644). The assay is described as follows: Inhibition of recombinant human MAPKAPK3 (2 to end residues) at 1 uM using KKLNRTLSVA as substrate after 40 mins in presence of [gamma-33P]ATP by scintillation counting method.
Assay [5] addresses Serine/threonine-protein kinase MAK (Homo sapiens) (UniProt P20794). The assay is described as follows: Inhibition of recombinant full-length human MAK at 1 uM using RRRFRPASPLRGPPK as substrate after 120 mins in presence of [gamma-33P]ATP by scintillation counting method.
For assay [6], the target named is Receptor-interacting serine/threonine-protein kinase 2 (Homo sapiens) (UniProt O43353). In words: Inhibition of recombinant human RIPK2 (1 to 299 residues) at 1 uM using myelin basic protein as substrate after 120 mins in presence of [gamma-33P]ATP by scintillation counting method.
Assay [7] addresses SNF-related serine/threonine-protein kinase (Homo sapiens) (UniProt Q9NRH2). In words: Inhibition of recombinant human SNRK (1 to 505 residues) at 1 uM using KKLRRTLSFAEPG as substrate after 40 mins in presence of [gamma-33P]ATP by scintillation counting method.
For assay [8], the target named is Non-receptor tyrosine-protein kinase TYK2 (Homo sapiens) (UniProt P29597). In words: Inhibition of recombinant human TYK2 (875 to end residues) at 1 uM using GGMEDIYFEFMGGKKK as substrate after 40 mins in presence of [gamma-33P]ATP by scintillation counting method.
Sequence of Non-receptor tyrosine-protein kinase TYK2 (Homo sapiens) (P29597 whole entry): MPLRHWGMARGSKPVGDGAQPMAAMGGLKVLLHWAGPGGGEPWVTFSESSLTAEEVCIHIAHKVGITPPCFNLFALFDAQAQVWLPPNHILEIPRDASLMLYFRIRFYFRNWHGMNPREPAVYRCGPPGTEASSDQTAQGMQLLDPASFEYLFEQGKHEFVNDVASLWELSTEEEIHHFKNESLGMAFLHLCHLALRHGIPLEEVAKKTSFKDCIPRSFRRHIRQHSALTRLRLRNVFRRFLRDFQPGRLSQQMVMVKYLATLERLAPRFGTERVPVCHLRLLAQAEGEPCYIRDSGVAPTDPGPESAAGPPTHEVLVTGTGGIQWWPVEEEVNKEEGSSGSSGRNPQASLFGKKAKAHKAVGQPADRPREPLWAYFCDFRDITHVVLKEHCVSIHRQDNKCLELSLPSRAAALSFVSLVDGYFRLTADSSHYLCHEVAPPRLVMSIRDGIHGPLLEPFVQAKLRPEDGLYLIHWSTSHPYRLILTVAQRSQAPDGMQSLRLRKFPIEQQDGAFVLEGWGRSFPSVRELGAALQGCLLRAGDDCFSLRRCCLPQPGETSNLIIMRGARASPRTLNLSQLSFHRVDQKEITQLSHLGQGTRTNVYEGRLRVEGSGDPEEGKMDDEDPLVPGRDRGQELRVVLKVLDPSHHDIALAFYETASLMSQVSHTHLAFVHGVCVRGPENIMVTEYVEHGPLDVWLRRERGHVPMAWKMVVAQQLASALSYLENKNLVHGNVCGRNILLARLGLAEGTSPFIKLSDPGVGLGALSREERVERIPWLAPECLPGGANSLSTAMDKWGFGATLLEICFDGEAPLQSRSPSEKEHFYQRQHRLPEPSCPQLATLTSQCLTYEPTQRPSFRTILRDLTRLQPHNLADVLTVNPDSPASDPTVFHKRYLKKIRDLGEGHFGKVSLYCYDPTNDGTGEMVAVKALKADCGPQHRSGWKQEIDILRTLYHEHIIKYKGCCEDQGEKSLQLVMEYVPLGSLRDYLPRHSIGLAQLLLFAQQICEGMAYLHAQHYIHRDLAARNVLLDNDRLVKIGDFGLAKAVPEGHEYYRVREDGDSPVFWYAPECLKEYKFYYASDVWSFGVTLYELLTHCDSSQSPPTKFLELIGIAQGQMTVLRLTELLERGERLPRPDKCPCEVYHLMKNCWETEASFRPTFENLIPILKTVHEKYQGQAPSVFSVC
Assay [9] deals with Ribosomal protein S6 kinase alpha-2 (Homo sapiens) (UniProt Q15349). In words: Inhibition of recombinant full-length human Rsk3 at 1 uM using KKKNRTLSVA as substrate after 40 mins in presence of [gamma-33P]ATP by scintillation counting method.
Sequence of Ribosomal protein S6 kinase alpha-2 (Homo sapiens) (Q15349 whole entry): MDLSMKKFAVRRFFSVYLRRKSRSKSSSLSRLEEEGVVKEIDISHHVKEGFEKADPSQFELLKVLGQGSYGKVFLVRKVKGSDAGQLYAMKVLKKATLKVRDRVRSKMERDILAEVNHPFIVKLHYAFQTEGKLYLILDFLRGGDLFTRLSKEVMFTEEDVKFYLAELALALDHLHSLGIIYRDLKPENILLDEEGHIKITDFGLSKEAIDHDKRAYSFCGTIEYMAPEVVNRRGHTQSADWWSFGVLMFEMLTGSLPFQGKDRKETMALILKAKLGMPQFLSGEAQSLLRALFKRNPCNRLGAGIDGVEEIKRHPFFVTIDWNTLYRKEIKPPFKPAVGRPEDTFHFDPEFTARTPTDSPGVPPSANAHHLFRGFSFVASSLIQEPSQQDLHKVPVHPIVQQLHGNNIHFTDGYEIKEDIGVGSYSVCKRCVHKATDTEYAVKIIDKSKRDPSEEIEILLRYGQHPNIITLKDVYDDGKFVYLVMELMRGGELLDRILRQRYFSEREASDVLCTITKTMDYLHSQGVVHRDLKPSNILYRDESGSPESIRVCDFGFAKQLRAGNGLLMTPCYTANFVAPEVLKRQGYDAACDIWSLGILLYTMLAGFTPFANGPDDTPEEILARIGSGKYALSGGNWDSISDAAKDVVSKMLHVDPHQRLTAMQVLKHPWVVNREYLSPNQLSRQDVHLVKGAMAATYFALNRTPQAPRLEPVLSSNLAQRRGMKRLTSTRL
The target in assay [10] is Serine/threonine-protein kinase pim-3 (Homo sapiens) (UniProt Q86V86). In words: Inhibition of recombinant human PIM3 (2 to end residues) at 1 uM using RSRHSSYPAGT as substrate after 40 mins in presence of [gamma-33P]ATP by scintillation counting method.
Assay [11] deals with Death-associated protein kinase 3 (Homo sapiens) (UniProt O43293). The assay is described as follows: Inhibition of recombinant human ZIPK (1 to 290 residues) at 1 uM using KKLNRTLSFAEPG as substrate after 40 mins in presence of [gamma-33P]ATP by scintillation counting method.
The target in assay [12] is Serine/threonine-protein kinase 3 (Homo sapiens) (UniProt Q13188). In words: Inhibition of recombinant human MST2 (2 to end residues) at 1 uM using myelin basic protein as substrate after 40 mins in presence of [gamma-33P]ATP by scintillation counting method.
Assay [13] has as its target Mitogen-activated protein kinase kinase kinase kinase 4 (Homo sapiens) (UniProt O95819). In words: Inhibition of recombinant human MAP4K4 (1 to 328 residues) at 1 uM using RLGRDKYKTLRQIRQ as substrate after 40 mins in presence of [gamma-33P]ATP by scintillation counting method.
In assay [14] the target is Epithelial discoidin domain-containing receptor 1 (Homo sapiens) (UniProt Q08345). The assay is described as follows: Inhibition of recombinant human DDR1 (492 to end residues) at 1 uM using KKKSPGEYVNIEFG as substrate after 40 mins in presence of [gamma-33P]ATP by scintillation counting method.
The test system of assay [15] is PI3-kinase p110-alpha/p85-alpha (Homo sapiens), P27986+P42336 [E545K]. In words: Inhibition of recombinant full-length human p110a E545K mutant/p85a at 1 uM using phosphatidylinositol 4,5-bisphosphate as substrate after 40 mins in presence of [gamma-33P]ATP by scintillation counting method. Type of assay: protein-complex assay.
In assay [16] the target is Serine/threonine-protein kinase D2 (Homo sapiens) (UniProt Q9BZL6). In words: Inhibition of recombinant full-length human PKD2 at 1 uM using KKLNRTLSVA as substrate after 40 mins in presence of [gamma-33P]ATP by scintillation counting method.
Sequence of Serine/threonine-protein kinase D2 (Homo sapiens) (Q9BZL6 whole entry): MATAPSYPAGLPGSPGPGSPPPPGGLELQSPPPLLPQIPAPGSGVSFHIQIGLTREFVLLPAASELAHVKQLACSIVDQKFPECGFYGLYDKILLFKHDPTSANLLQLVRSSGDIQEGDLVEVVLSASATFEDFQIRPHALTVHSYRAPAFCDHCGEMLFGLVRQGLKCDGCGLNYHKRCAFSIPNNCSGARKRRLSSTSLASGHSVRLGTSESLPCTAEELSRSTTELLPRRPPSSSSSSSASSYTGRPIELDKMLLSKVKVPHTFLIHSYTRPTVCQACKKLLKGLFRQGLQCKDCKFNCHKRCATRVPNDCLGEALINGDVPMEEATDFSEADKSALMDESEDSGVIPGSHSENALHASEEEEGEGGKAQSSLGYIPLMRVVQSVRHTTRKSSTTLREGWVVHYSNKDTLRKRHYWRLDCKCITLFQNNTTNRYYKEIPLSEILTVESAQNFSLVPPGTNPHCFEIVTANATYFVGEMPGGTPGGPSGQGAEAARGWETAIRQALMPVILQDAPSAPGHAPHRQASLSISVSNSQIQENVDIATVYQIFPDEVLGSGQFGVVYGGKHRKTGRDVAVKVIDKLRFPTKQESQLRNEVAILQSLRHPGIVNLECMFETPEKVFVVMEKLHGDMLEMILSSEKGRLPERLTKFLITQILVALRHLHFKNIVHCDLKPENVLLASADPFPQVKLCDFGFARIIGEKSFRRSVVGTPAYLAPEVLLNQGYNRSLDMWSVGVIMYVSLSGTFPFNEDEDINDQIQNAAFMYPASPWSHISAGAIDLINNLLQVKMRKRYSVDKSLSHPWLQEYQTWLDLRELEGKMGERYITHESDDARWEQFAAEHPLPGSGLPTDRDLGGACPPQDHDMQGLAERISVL
For assay [17], the system named is Angiopoietin-1 receptor (Homo sapiens), Q02763 [R849W]. The assay is described as follows: Inhibition of recombinant activated human Tie2 R849W mutant (771 to end residues) at 1 uM using EFPIYDFLPAKKK as substrate after 40 mins in presence of [gamma-33P]ATP by scintillation counting method.
The test system of assay [18] is Tyrosine-protein kinase ABL1 (Homo sapiens), P00519 [H396P]. The assay is described as follows: Inhibition of recombinant human Abl H396P mutant (27 to end residues) at 1 uM using EAIYAAPFAKKK as substrate after 40 mins in presence of [gamma-33P]ATP by scintillation counting method.
Assay [19] has as its target PI3K p110 delta/p85 alpha (Mus musculus) (UniProt P26450+O35904). The assay is described as follows: Inhibition of recombinant full-length mouse p110d/p85a at 1 uM using phosphatidylinositol 4,5-bisphosphate as substrate after 40 mins in presence of [gamma-33P]ATP by scintillation counting method. Type of assay: protein-complex assay.
Assay [20] addresses cAMP-dependent protein kinase catalytic subunit alpha (Homo sapiens) (UniProt P17612). The assay is described as follows: Inhibition of recombinant full-length human PRKACA at 1 uM using LRRASLG (Kemptide) as substrate after 40 mins in presence of [gamma-33P]ATP by scintillation counting method.
Assay [21] concerns the target Inhibitor of nuclear factor kappa-B kinase subunit beta (Homo sapiens) (UniProt O14920). The assay is described as follows: Inhibition of recombinant full-length human IKKbeta at 1 uM using peptide as substrate after 40 mins in presence of [gamma-33P]ATP by scintillation counting method.
For assay [22], the target named is Glycogen synthase kinase-3 alpha (Homo sapiens) (UniProt P49840). In words: Inhibition of recombinant human GSK3alpha (2 to end residues) at 1 uM using YRRAAVPPSPSLSRHSSPHQS(p)EDEEE (phospho GS2 peptide) as substrate after 40 mins in presence of [gamma-33P]ATP by scintillation counting method.
The target of assay [23] is Proto-oncogene tyrosine-protein kinase receptor Ret (Homo sapiens) (UniProt P07949). In words: Inhibition of recombinant human RET (658 to end residues) at 1 uM using KKKSPGEYVNIEFG as substrate after 40 mins in presence of [gamma-33P]ATP by scintillation counting method.

Each structure is given as a SMILES string.

Sequence of Serine/threonine-protein kinase MAK (Homo sapiens) (P20794 whole entry, the tested form may be a part): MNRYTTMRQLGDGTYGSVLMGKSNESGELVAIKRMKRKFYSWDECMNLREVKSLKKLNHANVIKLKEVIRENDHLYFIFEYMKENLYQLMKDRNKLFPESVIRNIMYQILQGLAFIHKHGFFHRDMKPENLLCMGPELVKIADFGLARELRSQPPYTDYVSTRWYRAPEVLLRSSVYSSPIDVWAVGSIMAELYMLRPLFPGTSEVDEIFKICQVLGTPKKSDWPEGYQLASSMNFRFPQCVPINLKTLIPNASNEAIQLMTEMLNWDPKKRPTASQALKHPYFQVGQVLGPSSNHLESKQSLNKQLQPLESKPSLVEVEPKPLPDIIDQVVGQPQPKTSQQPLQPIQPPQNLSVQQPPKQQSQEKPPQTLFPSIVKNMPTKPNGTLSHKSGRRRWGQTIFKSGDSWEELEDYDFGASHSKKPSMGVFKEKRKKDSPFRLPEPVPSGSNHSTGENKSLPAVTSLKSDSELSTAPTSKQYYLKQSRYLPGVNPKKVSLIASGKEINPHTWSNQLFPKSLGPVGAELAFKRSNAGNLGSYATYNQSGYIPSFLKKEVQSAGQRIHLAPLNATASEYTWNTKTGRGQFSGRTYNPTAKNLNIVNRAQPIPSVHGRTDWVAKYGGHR
Sequence of Mitogen-activated protein kinase kinase kinase kinase 4 (Homo sapiens) (O95819 2-1239 limits assumed): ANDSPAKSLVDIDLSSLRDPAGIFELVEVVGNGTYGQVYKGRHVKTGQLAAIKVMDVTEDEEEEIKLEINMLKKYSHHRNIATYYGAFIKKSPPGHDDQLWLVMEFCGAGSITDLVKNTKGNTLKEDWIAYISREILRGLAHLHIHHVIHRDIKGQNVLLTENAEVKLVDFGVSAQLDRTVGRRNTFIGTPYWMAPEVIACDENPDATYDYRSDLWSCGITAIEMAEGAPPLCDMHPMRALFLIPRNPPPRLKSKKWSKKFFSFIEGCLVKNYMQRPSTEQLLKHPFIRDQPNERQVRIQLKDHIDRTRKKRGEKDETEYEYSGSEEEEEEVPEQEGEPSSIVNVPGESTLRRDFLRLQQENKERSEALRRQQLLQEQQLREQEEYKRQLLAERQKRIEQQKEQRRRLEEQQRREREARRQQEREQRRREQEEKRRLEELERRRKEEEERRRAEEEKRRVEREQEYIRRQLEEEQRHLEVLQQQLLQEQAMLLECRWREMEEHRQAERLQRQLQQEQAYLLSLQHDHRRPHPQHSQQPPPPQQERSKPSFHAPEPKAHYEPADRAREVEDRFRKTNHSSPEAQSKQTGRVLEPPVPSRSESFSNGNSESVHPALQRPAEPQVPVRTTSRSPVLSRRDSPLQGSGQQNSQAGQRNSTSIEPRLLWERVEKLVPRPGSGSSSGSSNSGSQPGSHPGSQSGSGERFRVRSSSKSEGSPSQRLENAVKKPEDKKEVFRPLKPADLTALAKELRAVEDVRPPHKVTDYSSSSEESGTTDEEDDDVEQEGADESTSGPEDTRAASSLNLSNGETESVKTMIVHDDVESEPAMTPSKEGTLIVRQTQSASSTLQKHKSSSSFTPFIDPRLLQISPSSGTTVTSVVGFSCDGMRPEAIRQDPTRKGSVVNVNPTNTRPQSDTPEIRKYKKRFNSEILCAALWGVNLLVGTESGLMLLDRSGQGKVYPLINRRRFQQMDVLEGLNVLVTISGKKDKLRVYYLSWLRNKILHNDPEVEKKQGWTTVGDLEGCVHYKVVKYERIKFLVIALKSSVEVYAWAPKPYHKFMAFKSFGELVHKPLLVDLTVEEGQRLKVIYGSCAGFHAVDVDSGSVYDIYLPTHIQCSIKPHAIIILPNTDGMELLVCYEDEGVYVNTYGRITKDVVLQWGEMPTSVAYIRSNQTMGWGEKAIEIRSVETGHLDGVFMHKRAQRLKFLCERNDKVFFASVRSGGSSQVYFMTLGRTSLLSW

Turning to `CS(=O)(=O)c1ccc(-n2nc(-c3cnc4[nH]ccc4c3)c3c(N)ncnc32)cc1`, the inhibition in [1] is 3%; in assay [2], 90%; in assay [3], -9%; in [4] it was -1%; in assay [5], 2%; in assay [6] it was 70%. For the same molecule, the inhibition is -6% in assay [7]; 8% in assay [8]; -8% in assay [9]; -1% in assay [10]; 0% in assay [11]; 8% in assay [12]. Also, the inhibition was -8% in assay [13]; 92% in [14]; 8% in [15]; 17% in assay [16]; 1% in assay [17]; 79% in assay [18]. Also, the inhibition was 27% in assay [19]; 4% in [20]; -3% in assay [21]; 17% in assay [22]; 95% in assay [23].
